Measurements taken from US20250313575A1, “MACROCYCLES AS LRRK2 INHIBITORS, PHARMACEUTICAL COMPOSITIONS, AND USES THEREOF” (Merck Sharp & Dohme LLC, priority 2022, published 2025).

molecular target: GST-tagged truncated human mutant G2019S LRRK2 (Homo sapiens (Human), UniProt Q5S007, G2019S); test: LRRK2 G2019S Km ATP LanthaScreen assay; assay type: biochemical; conditions: G2019S LRRK2, 134 μM ATP (Km ATP), LRRKtide substrate
Method in brief: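 TR-FRET assay with GST-tagged truncated human G2019S LRRK2 (1.25 nM), preincubated with compound 15 min, then reacted with fluorescein-LRRKtide and 134 μM ATP (Km) in Tris pH 8.5 buffer, 90 min, ambient temperature. Tb-anti-phospho-LRRKtide detection, 520/495 nm ratio; IC50 by 4-parameter logistic fit, top concentration 9.99 μM in DMSO, 10 points.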

Sequence of GST-tagged truncated human mutant G2019S LRRK2 (Q5S007 970-2527 G2019S): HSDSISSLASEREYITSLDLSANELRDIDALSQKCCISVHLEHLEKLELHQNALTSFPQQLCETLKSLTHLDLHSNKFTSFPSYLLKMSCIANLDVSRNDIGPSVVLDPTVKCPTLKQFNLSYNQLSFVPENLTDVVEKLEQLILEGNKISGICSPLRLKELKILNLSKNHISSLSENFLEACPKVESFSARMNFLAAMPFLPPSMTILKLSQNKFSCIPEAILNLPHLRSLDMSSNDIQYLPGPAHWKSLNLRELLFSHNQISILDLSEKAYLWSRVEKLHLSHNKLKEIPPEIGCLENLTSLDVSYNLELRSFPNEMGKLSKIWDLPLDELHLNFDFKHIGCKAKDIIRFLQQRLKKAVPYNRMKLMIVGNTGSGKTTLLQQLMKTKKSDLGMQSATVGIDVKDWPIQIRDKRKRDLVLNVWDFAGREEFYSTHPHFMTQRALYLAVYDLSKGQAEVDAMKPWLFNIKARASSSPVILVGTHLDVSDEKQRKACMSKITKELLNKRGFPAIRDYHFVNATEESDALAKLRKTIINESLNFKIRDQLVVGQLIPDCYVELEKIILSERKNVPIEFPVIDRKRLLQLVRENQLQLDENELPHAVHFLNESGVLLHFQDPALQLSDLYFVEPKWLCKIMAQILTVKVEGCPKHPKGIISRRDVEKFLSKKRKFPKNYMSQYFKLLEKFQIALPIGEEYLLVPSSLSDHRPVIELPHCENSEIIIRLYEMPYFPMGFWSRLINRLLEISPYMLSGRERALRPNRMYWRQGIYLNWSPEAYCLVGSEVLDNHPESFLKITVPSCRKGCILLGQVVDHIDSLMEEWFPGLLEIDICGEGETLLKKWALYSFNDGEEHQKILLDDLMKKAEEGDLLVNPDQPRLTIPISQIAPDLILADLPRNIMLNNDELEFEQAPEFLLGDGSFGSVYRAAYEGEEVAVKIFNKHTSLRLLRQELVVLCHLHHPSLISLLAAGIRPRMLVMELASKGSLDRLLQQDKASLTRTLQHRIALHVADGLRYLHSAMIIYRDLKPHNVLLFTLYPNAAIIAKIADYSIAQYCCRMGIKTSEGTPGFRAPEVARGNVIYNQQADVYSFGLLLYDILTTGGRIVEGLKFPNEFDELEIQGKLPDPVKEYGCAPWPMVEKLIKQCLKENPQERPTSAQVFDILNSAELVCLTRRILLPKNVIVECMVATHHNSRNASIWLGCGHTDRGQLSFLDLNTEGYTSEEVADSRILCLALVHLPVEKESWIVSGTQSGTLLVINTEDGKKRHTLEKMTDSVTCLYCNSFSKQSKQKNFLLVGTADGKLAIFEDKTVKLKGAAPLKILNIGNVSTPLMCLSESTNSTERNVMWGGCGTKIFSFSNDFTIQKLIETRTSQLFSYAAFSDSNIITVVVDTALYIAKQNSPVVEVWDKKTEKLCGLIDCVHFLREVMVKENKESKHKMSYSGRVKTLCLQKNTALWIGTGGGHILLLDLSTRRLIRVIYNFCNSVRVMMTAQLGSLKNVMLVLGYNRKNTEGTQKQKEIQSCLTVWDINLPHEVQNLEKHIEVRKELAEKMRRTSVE

SMILES	LRRK2 pIC50
CCOC(=O)[C@@H]1C[C@@H]1c1nn(C(C)C)c2c1OC[C@@H]1COC[C@H]1Nc1nc(ncc1C(F)(F)F)N2 [Ex-2.46, ethyl (1R,2S)- or ethyl (1S,2R)-2-((10aS,13aS)-3-isopropyl-8-(trifluoromethyl)-3,4,10a,11,13a,14-hexahydro-10H,13H-5,9-(azeno)furo[3,4-k]pyrazolo[4,3-b][1]oxa[4,6,10]triazacyclotridecin-1-yl)cyclopropane-1-carboxylate]	6.66
CCOC(=O)[C@@H]1C[C@@H]1c1nn(C(C)C)c2c1OC[C@@H]1COC[C@H]1Nc1nc(ncc1C(F)(F)F)N2 [Ex-2.47, ethyl (1R,2S)- or ethyl (1S,2R)-2-((10aS,13aS)-3-isopropyl-8-(trifluoromethyl)-3,4,10a,11,13a,14-hexahydro-10H,13H-5,9-(azeno)furo[3,4-k]pyrazolo[4,3-b][1]oxa[4,6,10]triazacyclotridecin-1-yl)cyclopropane-1-carboxylate]	>10.09
CC(C)(C#N)c1nn(C2CCC2)c2c1OC[C@@H]1COC[C@H]1Nc1nc(ncc1C(F)(F)F)N2 [Ex-2.48, 2-((10aS,13aS)-3-cyclobutyl-8-(trifluoromethyl)-3,4,10a,11,13a,14-hexahydro-10H,13H-5,9-(azeno)furo[3,4-k]pyrazolo[4,3-b][1]oxa[4,6,10]triazacyclotridecin-1-yl)-2-methylpropanenitrile]	>10.09
Cc1nn(C2CCC2)c2c1OC[C@@H]1COC[C@H]1Nc1nc(ncc1Cl)N2 [Ex-2.49, (10aS,13aS)-8-chloro-3-cyclobutyl-1-methyl-3,4,10a,11,13a,14-hexahydro-10H,13H-5,9-(azeno)furo[3,4-k]pyrazolo[4,3-b][1]oxa[4,6,10]triazacyclotridecine]	>10.09
CC(C)(C#N)c1nn(C2CCC2)c2c1OC[C@H]1CC[C@@H]1Nc1nc(ncc1C(F)(F)F)N2 [Ex-2.52, 2-((10aS,12aS)- or 2-((10aR,12aR)-3-cyclobutyl-8-(trifluoromethyl)-3,4,10,10a,11,12,12a,13-octahydro-5,9-(azeno)cyclobuta[k]pyrazolo[4,3-b][1]oxa[4,6,10]triazacyclotridecin-1-yl)-2-methylpropanenitrile]	5.96
CC(C)(C#N)c1nn(C2CCC2)c2c1OC[C@H]1CC[C@@H]1Nc1nc(ncc1C(F)(F)F)N2 [Ex-2.53, 2-((10aS,12aS)- or 2-((10aR,12aR)-3-cyclobutyl-8-(trifluoromethyl)-3,4,10,10a,11,12,12a,13-octahydro-5,9-(azeno)cyclobuta[k]pyrazolo[4,3-b][1]oxa[4,6,10]triazacyclotridecin-1-yl)-2-methylpropanenitrile]	9.64
Cc1nn(C(C)C)c2c1OC[C@@H]1COC[C@H]1Nc1nc(ncc1Cl)N2 [Ex-2.54, (10aS,13aS)-8-chloro-3-isopropyl-1-methyl-3,4,10a, 11,13a,14--hexahydro-10H,13H-5,9-(azeno)furo[3,4-k]pyrazolo[4,3-b][1]oxa[4,6,10]triazacyclotridecine]	8.57
Cc1nn(C2CC2)c2c1OC[C@@H]1COC[C@H]1Nc1nc(ncc1Cl)N2 [Ex-2.55, (10aS,13aS)-8-chloro-3-cyclopropyl-1-methyl-3,4,10a,11,13a,14-hexahydro-10H,13H-5,9-(azeno)furo[3,4-k]pyrazolo[4,3-b][1]oxa[4,6,10]triazacyclotridecine]	8.94
Cc1nn(C2CCC2)c2c1OC[C@@H]1CC[C@@H]1Nc1nc(ncc1Cl)N2 [Ex-2.56, (10aS,12aR)-8-chloro-3-cyclobutyl-1-methyl-3,4,10,10a,11,12,12a,13-octahydro-5,9-(azeno)cyclobuta[k]pyrazolo[4,3-b][1]oxa[4,6,10]triazacyclotridecine]	>10.09
CC(C)n1nc(C2CC2)c2c1Nc1ncc(C(F)(F)F)c(n1)N[C@@H]1COC[C@H]1CO2 [Ex-2.57, (10aS,13aS)-1-cyclopropyl-3-isopropyl-8-(trifluoromethyl)-3,4,10a,11,13a,14-hexahydro-10H,13H-5,9-(azeno)furo[3,4-k]pyrazolo[4,3-b][1]oxa[4,6,10]triazacyclotridecine]	9.98
Cc1nn(C2CC2(F)F)c2c1OCC1COCC1Nc1nc(ncc1C(F)(F)F)N2 [Ex-2.58, (10aS,13aS)-3-((R)-2,2-difluorocyclopropyl)-1-methyl-8-(trifluoromethyl)-3,4,10a,11,13a,14-hexahydro-10H,13H-5,9-(azeno)furo[3,4-k]pyrazolo[4,3-b][1]oxa[4,6,10]triazacyclotridecine (10aS,13aS)-3-((S)-2,2-difluorocyclopropyl)-1-methyl-8-(trifluoromethyl)-3,4,10a,11,13a,14-hexahydro-10H,13H-5,9-(azeno)furo[3,4-k]pyrazolo[4,3-b][1]oxa[4,6,10]triazacyclotridecine]	8.78
Cc1nn(C2CC2(F)F)c2c1OCC1COCC1Nc1nc(ncc1C(F)(F)F)N2 [Ex-2.59, (10aS,13aS)-3-((R)-2,2-difluorocyclopropyl)-1-methyl-8-(trifluoromethyl)-3,4,10a,11,13a,14-hexahydro-10H,13H-5,9-(azeno)furo[3,4-k]pyrazolo[4,3-b][1]oxa[4,6,10]triazacyclotridecine (10aS,13aS)-3-((S)-2,2-difluorocyclopropyl)-1-methyl-8-(trifluoromethyl)-3,4,10a,11,13a, 14-hexahydro-10H,13H-5,9-(azeno)furo[3,4-k]pyrazolo[4,3-b|[1]oxa|4,6,10]triazacyclotridecine]	9.71
Cc1nn(C2CC2)c2c1OC[C@@H]1CC[C@H]1Nc1nc(ncc1Cl)N2 [Ex-2.60, (10aR,12aR)-8-chloro-3-cyclopropyl-1-methyl-3,4,10,10a,11,12,12a,13-octahydro-5,9-(azeno)cyclobuta[k]pyrazolo[4,3-b][1]oxa[4,6,10]triazacyclotridecine]	9.41
Cc1nn(C(C)C)c2c1OC[C@@H]1CC[C@H]1Nc1nc(ncc1Cl)N2 [Ex-2.61, (10aR,12aR)-8-chloro-3-isopropyl-1-methyl-3,4,10,10a,11,12,12a,13-octahydro-5,9-(azeno)cyclobuta[k]pyrazolo[4,3-b][1]oxa[4,6,10]triazacyclotridecine]	9.60
FC(F)(F)c1cnc2nc1NC1CCC1COc1c(C3CCOC3)nn(C3CCC3)c1N2 [Ex-2.62, (10aR,12aR)-3-cyclobutyl-1-((R)-(10aR,12aR)-3-cyclobutyl-1-((S)-(10aS,12aS)-3-cyclobutyl-1-((R)-(10aS,12aS)-3-cyclobutyl-1-((S)-tetrahydrofuran-3-yl)-8-(trifluoromethyl)-3,4,10,10a,11,12,12a,13-octahydro-5,9-(azeno)cyclobuta[k]pyrazolo[4,3-b][1]oxa[4,6,10]triazacyclotridecine]	6.88
FC(F)(F)c1cnc2nc1NC1CCC1COc1c(C3CCOC3)nn(C3CCC3)c1N2 [Ex-2.63, (10aR,12aR)-3-cyclobutyl-1-((R)-(10aR,12aR)-3-cyclobutyl-1-((S)-(10aS,12aS)-3-cyclobutyl-1-((R)-(10aS,12aS)-3-cyclobutyl-1-((S)-tetrahydrofuran-3-yl)-8-(trifluoromethyl)-3,4,10,10a,11,12,12a,13-octahydro-5,9-(azeno)cyclobuta[k]pyrazolo[4,3-b][1]oxa[4,6,10]triazacyclotridecine]	>10.09
FC(F)(F)c1cnc2nc1NC1CCC1COc1c(C3CCOC3)nn(C3CCC3)c1N2 [Ex-2.64, (10aR,12aR)-3-cyclobutyl-1-((R)-(10aR,12aR)-3-cyclobutyl-1-((S)-(10aS,12aS)-3-cyclobutyl-1-((R)-(10aS,12aS)-3-cyclobutyl-1-((S)-tetrahydrofuran-3-yl)-8-(trifluoromethyl)-3,4,10,10a,11,12,12a,13-octahydro-5,9-(azeno)cyclobuta[k]pyrazolo[4,3-b][1]oxa|4,6,10]triazacyclotridecine]	>10.09
FC(F)(F)c1cnc2nc1NC1CCC1COc1c(C3CCOC3)nn(C3CCC3)c1N2 [Ex-2.65, (10aR,12aR)-3-cyclobutyl-1-((R)-(10aR,12aR)-3-cyclobutyl-1-((S)-(10aS,12aS)-3-cyclobutyl-1-((R)-(10aS,12aS)-3-cyclobutyl-1-((S)-tetrahydrofuran-3-yl)-8-(trifluoromethyl)-3,4,10,10a,11,12,12a,13-octahydro-5,9-(azeno)cyclobuta[k]pyrazolo[4,3-b][1]oxa[4,6,10]triazacyclotridecine]	6.59
Cc1nn(C2CCC2)c2c1OC[C@@H]1COC[C@H]1Nc1nc(ncc1F)N2 [Ex-2.66, (10aS,13aS)-3-cyclobutyl-8-fluoro-1-methyl-3,4,10a,11,13a,14-hexahydro-10H,13H-5,9-(azeno)furo[3,4-k]pyrazolo[4,3-b][1]oxa[4,6,10]triazacyclotridecine]	8.43
CCOC(=O)Cc1nn(C2CC2)c2c1OC[C@@H]1COC[C@H]1Nc1nc(ncc1C(F)(F)F)N2 [Ex-2.67, ethyl 2-((10aS,13aS)-3-cyclopropyl-8-(trifluoromethyl)-3,4,10a,11,13a,14-hexahydro-10H,13H-5,9-(azeno)furo[3,4-k]pyrazolo[4,3-b][1]oxa[4,6,10]triazacyclotridecin-1-yl)acetate]	9.45
Cc1nn(C2CC2)c2c1OC[C@@H]1CC[C@H]1Nc1nc(ncc1C(F)(F)F)N2 [Ex-2.68, (10aR,12aR)-3-cyclopropyl-1-methyl-8-(trifluoromethyl)-3,4,10,10a,11,12,12a,13-octahydro-5,9-(azeno)cyclobuta[k]pyrazolo[4,3-b][1]oxa[4,6,10]triazacyclotridecine]	>10.09
